Assay results from patent EP1984353B1, “AURORA KINASE MODULATORS AND METHOD OF USE” (Amgen, Inc, priority 2006, dated 2007).
Like-named read-outs stand apart in the source and are kept apart here. Values belong to the compound of their own block, whether it stands above or below them.

Columns and labels:
[1] = system: phosphorylation of Histone H3; assay: HeLa cell 1-hour phospho-histone assay; assay type: cell-based; settings: HeLa cells
Procedure: HeLa cell 1-hour phospho-histone assay
The purpose of this assay is to test the inhibitory effect of Aurora compounds with respect to phosphorylation of Histone H3 in the cellular context. HeLa cells (9x10^4/well) are plated in black 96-well flat-bottom tissue culture plates and incubated for 40 hours prior to compound addition. Compounds are serially diluted in DMSO, followed by dilution into MEM containing […] HEPES; 10ul/well of diluted compounds are added to cells (0.5% DMSO final). Cells are incubated for 1 hour at 37 °C in 5% CO2. Cells are then fixed with 3.7% formaldehyde for 10 minutes, washed with wash buffer (1% goat serum and 0.1% Tween 20 in PBS), then permeabilized with 0.5% Triton X in PBS for 15 minutes. After washing with wash buffer, cells are incubated with primary antibody (Upstate #06-507 anti-phospho-histone (Ser 10) antibody (pHH3) for 1 hour at 10ug/ml. After 2 washes with wash buffer, cells are incubated with secondary antibody (Molecular Probes #A11034 goat anti-rabbit Alexa-488 for 1 hour at 1ug/ml + Hoechst 33342 nuclear dye at 1ug/ml (Molecular Probes). Cells are washed 2 times with wash buffer, and buffer replaced with PBS. Plates are scanned on the Cellomics Array Scan (6 fields, ~2000 cells/well) and % of cells that are pHH3 positive were calculated using the Cellomics algorithm.

AuroraB = molecular target: T1, AuroraB (Homo sapiens, UniProt Q96GD4); assay: AuroraB Homogeneous Time Resolved Fluorescent (HTRF) kinase assay; assay type: biochemical
T1 construct: 20 µL of AuroraB FL His; His
T1 sequence (Q96GD4 whole entry): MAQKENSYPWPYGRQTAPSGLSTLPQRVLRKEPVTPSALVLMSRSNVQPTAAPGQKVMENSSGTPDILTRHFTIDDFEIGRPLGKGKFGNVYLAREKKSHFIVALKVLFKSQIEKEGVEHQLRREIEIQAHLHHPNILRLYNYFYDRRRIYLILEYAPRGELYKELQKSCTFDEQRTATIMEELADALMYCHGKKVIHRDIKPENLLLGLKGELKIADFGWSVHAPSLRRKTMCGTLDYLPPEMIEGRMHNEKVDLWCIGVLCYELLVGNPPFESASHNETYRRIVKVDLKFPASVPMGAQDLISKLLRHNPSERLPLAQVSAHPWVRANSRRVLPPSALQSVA
How it was run: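 HTRF read-out: after EDTA stop and ~60 min with europium anti-phospho-H3 antibody and streptavidin-APC, 655/615 nm ratio reports phosphorylation. Reaction: 400 pM AuroraB FL His, 23 µM ATP (at Km(app)), 0.1 µM biotin-Histone H3 peptide, 50 mM HEPES pH 7.5, MgCl/MnCl, ~90 min.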

AuroraA-TPX2 = molecular target: T2, AuroraA-TPX2 (Homo sapiens, UniProt O14965); assay: AuroraA-TPX2 Homogeneous Time Resolved Fluorescent (HTRF) kinase assay; assay type: biochemical; settings: average, read-out: AurA/TP X2_ IC50_IP (Avg)
T2 construct: 20 µL of AuroraA-TPX2 KD GST; GST
T2 sequence (O14965 133-383 limits assumed): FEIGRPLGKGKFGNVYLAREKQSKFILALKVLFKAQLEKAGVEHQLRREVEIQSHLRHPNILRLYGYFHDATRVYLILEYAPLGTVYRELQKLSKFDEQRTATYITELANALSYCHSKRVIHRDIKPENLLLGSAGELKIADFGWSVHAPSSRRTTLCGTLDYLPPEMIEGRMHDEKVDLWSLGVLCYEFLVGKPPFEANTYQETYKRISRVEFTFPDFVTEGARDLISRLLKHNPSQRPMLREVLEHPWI
T2 sequence (Q9ULW0 1-43 partner limits assumed): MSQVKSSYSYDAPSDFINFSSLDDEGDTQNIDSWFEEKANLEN
How it was run: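 HTRF read-out: europium anti-phosphoPLK antibody (0.02 nM) plus streptavidin-APC detect phosphorylated biotin-PLK after EDTA stop and overnight equilibration. Kinase step runs about 120 min with Aurora-A/TPX2, ATP and roughly 1 µM PLK peptide at pH 7.5 HEPES buffer with Mg2+ and DTT.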

[2] = Homo sapiens, HeLa, 1 h, 1 hour incubation, % of cells pHH3 positive, read-out: inhibitory activity (EC50) in the phospho-histone H3 assay
[3] = average, given as class symbols, read-out: AurB_ _IC50_IP (Avg)
[4] = Homo sapiens, HeLa, 1 h, 1 hour, average, given as class symbols, read-out: pHH3 EC50_IP (Avg)
[5] = Homo sapiens, HeLa, 1 h, 1 hour, average, given as numbers, unit inferred, read-out: pHH3 EC50_IP (Avg)

EC50 [1, 2]: < 1000 nM
Compound: Nc1nccc(-c2cccnc2Oc2ccc(Nc3nnc(-c4ccsc4)c4ccccc34)cc2)n1 [Example 90, N-(4-((3-(2-amino-4-pyrimidinyl)-2-pyridinyl)oxy)phenyl)-4-(3-thienyl)-1-phthalazinamine]

EC50 [1, 2]: < 1000 nM
Compound: CNc1nccc(-c2cccnc2Oc2ccc(Nc3nnc(-c4ccsc4)c4ccccc34)cn2)n1 [Example 92, N-(6-((3-(2-(methylamino)-4-pyrimidinyl)-2-pyridinyl)oxy)-3-pyridinyl)-4-(3-thienyl)-1-phthalazinamine]

EC50 [1, 2]: < 1000 nM
Compound: CNc1nccc(-c2cccnc2Oc2ccc(Nc3nnc(-c4ccccc4)c4c3CCCC4)cn2)n1 [Example 105, N-(6-((3-(2-(methylamino)-4-pyrimidinyl)-2-pyridinyl)oxy)-3-pyridinyl)-4-phenyl-5,6,7,8-tetrahydro-1-phthalazinamine]

EC50 ([1]; 1 hour incubation, % of cells pHH3 positive, read-out: inhibitory activity (EC50) in the phospho-histone H3 assay): < 1000 nM
Compound: CNc1nccc(-c2cccnc2Oc2ccc(Nc3nnc(-c4ccccc4)c4c3C3CCC4CC3)cc2)n1 [Example 107, N-(4-((3-(2-(methylamino)-4-pyrimidinyl)-2-pyridinyl)oxy)phenyl)-6-phenyl-4,5-diazatricyclo [6.2.2.0-2,7-]dodeca-2,4,6-trien-3-amine]

EC50 [1, 2]: < 1000 nM
Compound: CNc1nccc(-c2cccnc2Oc2ccc(Nc3nnc(-c4ccccc4)c4c3CCC4)cn2)n1 [Example 108, N-(6-((3-(2-(methylamino)-4-pyrimidinyl)-2-pyridinyl)oxy)-3-pyridinyl)-4-phenyl-6,7-dihydro-5H-cyclopenta[d]pyridazin-1-amine]

EC50 [1, 2]: < 1000 nM
Compound: Cc1cc(-c2ccccc2)nnc1Nc1ccc(Oc2ncccc2-c2ccnc(N)n2)cc1 [Example 119, N-(4-((3-(2-amino-4-pyrimidinyl)-2-pyridinyl)oxy)phenyl)-4-methyl-6-phenyl-3-pyridazinamine]

EC50 [1, 2]: < 1000 nM
Compound: CNc1cc(-c2cccnc2Oc2ccc(Nc3nnc(-c4ccccc4)c4c3CCC4)cn2)ccn1 [Example 120, N-methyl-2-((5-((4-phenyl-6,7-dihydro-5H-cyclopenta[d]pyridazin-1-yl)amino)-2-pyridinyl)oxy)-3,4'-bipyridin-2'-amine]

IC50 (AuroraB; read-out: inhibitory activity (IC50) in the Aurora kinase B HTRF assay): < 500 nM | EC50 [1, 2]: < 1000 nM
Compound: Nc1[nH]ncc1-c1cccnc1Oc1ccc(Nc2nnc(-c3ccccc3)c3ccccc23)cc1 [Example 238, N-(4-((3-(5-amino-1H-pyrazol-4-yl)-2-pyridinyl)oxy)phenyl)-4-phenyl-1-phthalazinamine]

IC50 (AuroraB; [3]): 500 to 2500 nM | EC50 [1, 4]: 500 to 2500 nM
Compound: Cc1cc(Br)cnc1Nc1ccc(Oc2ncccc2-c2ccncc2)cc1 [compound 264, N-(4-(3,4'-bipyridin-2-yloxy)phenyl)-5-bromo-3-methyl-2-pyridinamine]

EC50 [1, 4]: ≤ 100 nM
Compound: Nc1nccc(-c2cccnc2Oc2ccc(Nc3nnc(-c4ccccc4)c4ccccc34)cn2)n1 [compound 415, N-(6-((3-(2-amino-4-pyrimidinyl)-2-pyridinyl)oxy)-3-pyridinyl)-4-phenyl-1-phthalazinamine]

EC50 [1, 5]: 134 nM
Compound: Cc1csc(-c2nnc(Nc3ccc(Oc4ncccc4-c4ccnc(N)c4)cc3)c3ccccc23)c1 [compound 416, 2-((4-((4-(4-methyl-2-thienyl)-1-phthalazinyl)amino)phenyl)oxy)-3,4'-bipyridin-2'-amine]

EC50 [1, 4]: 100 to 500 nM
Compound: Cc1cc(-c2ccccc2)nnc1Nc1ccc(Oc2ncccc2-c2ccnc(N)c2)cc1 [compound 418, 2-((4-((4-methyl-6-phenyl-3-pyridazinyl)amino)phenyl)oxy)-3,4'-bipyridin-2'-amine]

EC50 [1, 4]: 100 to 500 nM
Compound: Cc1csc(-c2cc(C)c(Nc3ccc(Oc4ncccc4-c4ccnc(N)c4)cc3)nn2)c1 [compound 419, 2-((4-((4-methyl-6-(4-methyl-2-thienyl)-3-pyridazinyl)amino)phenyl)oxy)-3,4'-bipyridin-2'-amine]

EC50 [1, 5]: 314 nM
Compound: CCc1cc(-c2ccccc2)nnc1Nc1ccc(Oc2ncccc2-c2ccnc(N)c2)cc1 [compound 420, 2-((4-((4-ethyl-6-phenyl-3-pyridazinyl)amino)phenyl)oxy)-3,4'-bipyridin-2'-amine]

EC50 [1, 4]: 500 to 2500 nM
Compound: O=C(O)CCCNc1nccc(-c2cccnc2Oc2ccc(Nc3nnc(-c4ccccc4)c4ccccc34)cc2)n1 [compound 427, 4-((4-(2-((4-((4-phenyl-1-phthalazinyl)amino)phenyl)oxy)-3-pyridinyl)-2-pyrimidinyl)amino)butanoic acid]

EC50 [1, 4]: 500 to 2500 nM
Compound: Cc1csc(-c2cc(C)c(Nc3ccc(Oc4ncccc4-c4ccncc4)cc3)nn2)c1 [compound 428, N-(4-(3,4'-bipyridin-2-yloxy)phenyl)-4-methyl-6-(4-methyl-2-thienyl)-3-pyridazinamine]

EC50 [1, 4]: 100 to 500 nM
Compound: Cc1cc(-c2ccccc2)nnc1Nc1ccc(Oc2ncccc2-c2ccnc(NCCCO)n2)cc1 [compound 429, 3-((4-(2-((4-((4-methyl-6-phenyl-3-pyridazinyl)amino)phenyl)oxy)-3-pyridinyl)-2-pyrimidinyl)amino)-1-propanol]

EC50 [1, 4]: 500 to 2500 nM
Compound: Cc1cc(-c2ccccc2)nnc1Nc1ccc(Oc2ncccc2-c2ccnc(NCCCC(=O)O)n2)cc1 [compound 430, 4-((4-(2-((4-((4-methyl-6-phenyl-3-pyridazinyl)amino)phenyl)oxy)-3-pyridinyl)-2-pyrimidinyl)amino)butanoic acid]

EC50 [1, 4]: ≤ 100 nM
Compound: Nc1cc(-c2cccnc2Oc2ccc(Nc3nnc(-c4ccccc4)c4ccccc34)cn2)ccn1 [compound 431, 2-((5-((4-phenyl-l-phthalazinyl)amino)-2-pyridinyl)oxy)-3,4'-bipyridin-2'-amine]

EC50 [1, 4]: 500 to 2500 nM
Compound: O=c1cc(-c2cccnc2Oc2ccc(Nc3nnc(-c4ccccc4)c4ccccc34)cc2)cc[nH]1 [compound 432, 2-((4-((4-phenyl-1-phthalazinyl)amino)phenyl)oxy)-3,4'-bipyridin-2'(1'H)-one]

EC50 [1, 5]: 1000 nM
Compound: Cc1csc(-c2cc(C)c(Nc3ccc(Oc4ncccc4-c4ccnc(N)c4)cc3)nn2)n1 [compound 434, 2-((4-((4-methyl-6-(4-methyl-1,3-thiazol-2-yl)-3-pyridazinyl)amino)phenyl)oxy)-3,4'-bipyridin-2'-amine]

IC50 (AuroraA-TPX2; given as class symbols): ≤ 100 nM | IC50 (AuroraB; [3]): ≤ 100 nM
Compound: CCc1cc(-c2ccccc2)nnc1Nc1ccc(Oc2ncccc2-c2ccnc(NCCCN3CCCCC3)n2)cc1 [compound 458, 4-ethyl-6-phenyl-N-(4-((3-(2-((3-(1-piperidinyl)propyl)amino)-4-pyrimidinyl)-2-pyridinyl)oxy)phenyl)-3-pyridazinamine]

IC50 (AuroraA-TPX2; given as class symbols): 100 to 500 nM | IC50 (AuroraB; [3]): ≤ 100 nM
Compound: CCc1cc(-c2ccccc2)nnc1Nc1ccc(Oc2ncccc2-c2ccnc(NCCCN3CCCC3)n2)cc1 [compound 459, 4-ethyl-6-phenyl-N-(4-((3-(2-((3-(1-pyrrolidinyl)propyl)amino)-4-pyrimidinyl)-2-pyridinyl)oxy)phenyl)-3-pyridazinamine]

IC50 (AuroraA-TPX2; given as class symbols): ≤ 100 nM | IC50 (AuroraB; [3]): ≤ 100 nM
Compound: COc1cccc(-c2nnc(Nc3ccc(Oc4ncccc4-c4ccnc(NCCCN5CCNCC5)n4)cc3)c3ccccc23)n1 [compound 460, 4-(6-(methyloxy)-2-pyridinyl)-N-(4-((3-(2-((3-(1-piperazinyl)propyl)amino)-4-pyrimidinyl)-2-pyridinyl)oxy)phenyl)-1-phthalazinamine]

IC50 (AuroraA-TPX2; given as numbers, unit inferred): 24.3 nM | IC50 (AuroraB; average, given as numbers, unit inferred, read-out: AurB_ _IC50_IP (Avg)): 1 nM
Compound: N-(4-((3-(2-amino-4-pyrimidinyl)-2-pyridinyl)oxy)phenyl)-4-(6-methyl-2-pyridinyl)-1-phthalazinamine [compound 271]

IC50 (AuroraA-TPX2; given as class symbols): ≤ 100 nM | IC50 (AuroraB; [3]): ≤ 100 nM
Compound: N-(4-((3-(2-amino-4-pyrimidinyl)-2-pyridinyl)oxy)phenyl)-4-ethyl-6-phenyl-3-pyridazinamine [compound 435]
